We go through five molecules from paper PMC4957640 (Bioorganic & medicinal chemistry, 2016).

Bounds are passed on as bounds.

Holding throughout (assay type): biochemical
In experiment [1] the target is cloned human μ opioid receptor (MOR) (Homo sapiens, UniProt P35372). As to the kind of experiment: Inhibition of DAMGO-stimulated [35S]GTPγS binding.
In experiment [2] the target is cloned human δ opioid receptor (DOR) (Homo sapiens, UniProt P41143). As to the kind of experiment: Inhibition of DPDPE-stimulated [35S]GTPγS binding.
The target of experiment [3] is cloned human κ opioid receptor (KOR) (Homo sapiens, UniProt P41145). Nature of the experiment: Inhibition of U69,593-stimulated [35S]GTPγS binding. The following applies: for δ/κ: ratio of Ke values, selectivity for KOR relative to DOR (fold).
Chain of cloned human κ opioid receptor (KOR) (P41145 whole entry): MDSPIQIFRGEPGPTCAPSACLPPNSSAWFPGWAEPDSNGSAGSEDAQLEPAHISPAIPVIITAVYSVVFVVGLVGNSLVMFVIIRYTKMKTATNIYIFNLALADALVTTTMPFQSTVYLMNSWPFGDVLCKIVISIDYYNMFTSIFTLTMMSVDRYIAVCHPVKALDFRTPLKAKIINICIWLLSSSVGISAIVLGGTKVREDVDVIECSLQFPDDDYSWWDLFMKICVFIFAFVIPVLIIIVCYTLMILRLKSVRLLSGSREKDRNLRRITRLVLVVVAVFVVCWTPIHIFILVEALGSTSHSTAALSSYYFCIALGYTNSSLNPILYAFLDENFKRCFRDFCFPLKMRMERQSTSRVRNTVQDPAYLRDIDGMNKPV

Chain of cloned human μ opioid receptor (MOR) (P35372 whole entry): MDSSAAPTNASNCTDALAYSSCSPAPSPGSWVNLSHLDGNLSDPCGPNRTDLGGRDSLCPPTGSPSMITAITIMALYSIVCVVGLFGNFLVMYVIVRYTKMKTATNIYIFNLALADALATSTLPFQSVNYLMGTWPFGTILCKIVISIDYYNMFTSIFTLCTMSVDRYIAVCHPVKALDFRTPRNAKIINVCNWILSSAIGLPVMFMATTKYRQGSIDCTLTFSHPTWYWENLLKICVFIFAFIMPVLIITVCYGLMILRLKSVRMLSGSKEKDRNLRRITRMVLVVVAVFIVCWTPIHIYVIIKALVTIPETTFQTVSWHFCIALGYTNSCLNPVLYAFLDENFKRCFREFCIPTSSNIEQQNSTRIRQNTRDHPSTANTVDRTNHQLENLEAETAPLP
Chain of cloned human δ opioid receptor (DOR) (P41143 whole entry): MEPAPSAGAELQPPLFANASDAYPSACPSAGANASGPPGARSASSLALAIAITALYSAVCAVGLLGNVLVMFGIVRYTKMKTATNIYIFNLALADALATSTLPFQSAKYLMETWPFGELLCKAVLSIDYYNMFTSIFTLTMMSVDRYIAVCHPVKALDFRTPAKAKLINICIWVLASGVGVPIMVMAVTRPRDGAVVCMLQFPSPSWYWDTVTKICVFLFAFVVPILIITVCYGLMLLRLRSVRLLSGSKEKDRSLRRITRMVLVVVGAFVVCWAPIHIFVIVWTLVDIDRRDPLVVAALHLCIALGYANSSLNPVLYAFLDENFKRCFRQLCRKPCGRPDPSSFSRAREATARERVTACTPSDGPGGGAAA

Consider `CC(C)[C@@H](CN1CCC(c2ccccn2)CC1)NC(=O)[C@H]1Cc2ccc(O)cc2CN1` [Compound 2, (3R)-7-Hydroxy-N-{(1S)-2-methyl-1-[(4-pyridin-2-ylpiperidin-1-yl)methyl]propyl}-1,2,3,4-tetrahydroisoquinoline-3-carboxamide], for which the Kb in experiment [1] was 14.5 ± 2.6 nM; in experiment [2] it was 590 ± 130 nM; in experiment [3], 0.43 ± 0.12 nM. Further, the δ/κ in experiment [3] is recorded as 1,372.
As for `CC(C)[C@@H](CN1CCC(c2ccncc2)CC1)NC(=O)[C@H]1Cc2ccc(O)cc2CN1` [Compound 4a, (3R)-7-Hydroxy-N-{(1S)-2-methyl-1-[(4-pyridin-4-ylpiperidin-1-yl)methyl]propyl}-1,2,3,4-tetrahydroisoquinoline-3-carboxamide], the Kb in experiment [1] was determined as 57.1 ± 15 nM; in experiment [2], 690 ± 250 nM; in experiment [3] it was 0.51 ± 0.14 nM. Also, the δ/κ in experiment [3] is 1,353.
With `CC(C)[C@@H](CN1CCC(C)(c2cccnc2)CC1)NC(=O)[C@H]1Cc2ccc(O)cc2CN1` [Compound 3b, (3R)-7-Hydroxy-N-{(1S)-2-methyl-1-[(4-methyl-4-pyridin-3-ylpiperidin-1-yl)methyl]propyl}-1,2,3,4-tetrahydroisoquinoline-3-carboxamide], the Kb in experiment [1] was 49.2 ± 14 nM; in experiment [2], above 3000 nM; in experiment [3], 0.18 ± 0.01 nM. Further, the δ/κ in experiment [3] is >16,700.
In the same order, the values of `CC(C)[C@@H](CN1CCC(C)(c2ccncc2)CC1)NC(=O)[C@H]1Cc2ccc(O)cc2CN1` [Compound 4b, (3R)-7-Hydroxy-N-{(1S)-2-methyl-1-[(4-methyl-4-pyridin-4-ylpiperidin-1-yl)methyl]propyl}-1,2,3,4-tetrahydroisoquinoline-3-carboxamide] are 154 ± 56 nM, 2510 nM, 1.75 ± 0.65 nM and 1,434.
In the same order, the values of `CC(C)[C@@H](CN1CCC(c2cccnc2)CC1)NC(=O)[C@H]1Cc2ccc(O)cc2CN1` [Compound 3a, (3R)-7-Hydroxy-N-{(1S)-2-methyl-1-[(4-pyridin-3-ylpiperidin-1-yl)methyl]propyl}-1,2,3,4-tetrahydroisoquinoline-3-carboxamide] are 45.4 ± 15 nM, 1140 ± 70 nM, 0.51 ± 0.08 nM and 2,235.
